The text below walks through data of ChEMBL document CHEMBL5465560, “Selectivity Literature for EUbOPEN Chemogenomic Library” (2024).

Assay [1] addresses Tyrosine-protein kinase Fyn (Homo sapiens) (UniProt P06241). Description: Selectivity interaction (KinomeScan (DiscoverX)) EUB0000695a FYN. The conditions noted are these: at 100 nM.
Assay [2] addresses T1, Serine/threonine-protein kinase D2 (Homo sapiens) (UniProt Q9BZL6).
T1 sequence (whole entry): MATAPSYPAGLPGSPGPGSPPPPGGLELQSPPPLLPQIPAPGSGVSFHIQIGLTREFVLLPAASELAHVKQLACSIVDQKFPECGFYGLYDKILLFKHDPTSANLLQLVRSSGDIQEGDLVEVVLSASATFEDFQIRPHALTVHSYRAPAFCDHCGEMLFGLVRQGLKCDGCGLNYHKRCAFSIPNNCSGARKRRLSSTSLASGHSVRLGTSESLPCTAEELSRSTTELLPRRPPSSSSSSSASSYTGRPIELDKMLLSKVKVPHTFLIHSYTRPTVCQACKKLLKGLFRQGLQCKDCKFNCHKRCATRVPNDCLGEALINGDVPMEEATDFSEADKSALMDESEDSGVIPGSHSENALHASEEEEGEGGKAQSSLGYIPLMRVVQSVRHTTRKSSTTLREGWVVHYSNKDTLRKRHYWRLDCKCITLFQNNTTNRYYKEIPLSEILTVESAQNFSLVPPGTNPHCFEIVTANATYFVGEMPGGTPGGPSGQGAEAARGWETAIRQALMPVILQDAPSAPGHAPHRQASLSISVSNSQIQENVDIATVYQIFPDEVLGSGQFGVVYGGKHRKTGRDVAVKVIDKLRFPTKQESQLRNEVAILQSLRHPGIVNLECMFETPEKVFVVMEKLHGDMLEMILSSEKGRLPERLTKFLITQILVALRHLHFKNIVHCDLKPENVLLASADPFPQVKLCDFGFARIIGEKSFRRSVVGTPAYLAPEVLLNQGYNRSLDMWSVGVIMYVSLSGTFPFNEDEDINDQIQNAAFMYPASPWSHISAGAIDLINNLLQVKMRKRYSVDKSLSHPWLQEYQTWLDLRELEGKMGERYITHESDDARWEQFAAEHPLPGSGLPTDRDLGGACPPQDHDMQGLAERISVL
Put plainly: Selectivity interaction (ActivX KiNativ screen (kinase selectivity in THP-1 cell lysates)) EUB0000639a PRKD2. Type of assay: subcellular. The settings on record: lysate, at 5 µM.

Assay [3] deals with Serine/threonine-protein kinase 38-like (Homo sapiens) (UniProt Q9Y2H1). Put plainly: Selectivity interaction (ActivX KiNativ screen (kinase selectivity in THP-1 cell lysates)) EUB0000639a STK38L. Type of assay: subcellular. The settings on record: lysate, at 0.2 µM.
Serine/threonine-protein kinase 38-like (Homo sapiens), sequence (Q9Y2H1 2-464 limits assumed): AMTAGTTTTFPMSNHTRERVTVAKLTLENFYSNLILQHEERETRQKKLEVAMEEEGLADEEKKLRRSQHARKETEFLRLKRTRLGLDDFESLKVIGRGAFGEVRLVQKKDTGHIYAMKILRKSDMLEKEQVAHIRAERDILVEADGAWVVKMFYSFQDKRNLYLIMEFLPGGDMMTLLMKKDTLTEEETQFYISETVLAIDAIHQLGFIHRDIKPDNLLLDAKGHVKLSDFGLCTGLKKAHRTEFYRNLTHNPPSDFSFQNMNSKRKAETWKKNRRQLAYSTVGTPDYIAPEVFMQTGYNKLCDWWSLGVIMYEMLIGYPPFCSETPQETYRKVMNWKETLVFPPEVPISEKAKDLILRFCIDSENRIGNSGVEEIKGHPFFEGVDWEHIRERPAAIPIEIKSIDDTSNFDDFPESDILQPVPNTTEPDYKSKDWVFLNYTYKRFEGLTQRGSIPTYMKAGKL
In assay [4] the target is Protein kinase C alpha type (Homo sapiens, UniProt P17252). Description: Selectivity interaction (Kinase panel (33PanQinase(R) Activity Assay)) EUB0000877a PRKCA.
The target in assay [5] is T2, Histone-lysine N-methyltransferase EHMT1 (Homo sapiens) (UniProt Q9H9B1).
T2 sequence (whole entry): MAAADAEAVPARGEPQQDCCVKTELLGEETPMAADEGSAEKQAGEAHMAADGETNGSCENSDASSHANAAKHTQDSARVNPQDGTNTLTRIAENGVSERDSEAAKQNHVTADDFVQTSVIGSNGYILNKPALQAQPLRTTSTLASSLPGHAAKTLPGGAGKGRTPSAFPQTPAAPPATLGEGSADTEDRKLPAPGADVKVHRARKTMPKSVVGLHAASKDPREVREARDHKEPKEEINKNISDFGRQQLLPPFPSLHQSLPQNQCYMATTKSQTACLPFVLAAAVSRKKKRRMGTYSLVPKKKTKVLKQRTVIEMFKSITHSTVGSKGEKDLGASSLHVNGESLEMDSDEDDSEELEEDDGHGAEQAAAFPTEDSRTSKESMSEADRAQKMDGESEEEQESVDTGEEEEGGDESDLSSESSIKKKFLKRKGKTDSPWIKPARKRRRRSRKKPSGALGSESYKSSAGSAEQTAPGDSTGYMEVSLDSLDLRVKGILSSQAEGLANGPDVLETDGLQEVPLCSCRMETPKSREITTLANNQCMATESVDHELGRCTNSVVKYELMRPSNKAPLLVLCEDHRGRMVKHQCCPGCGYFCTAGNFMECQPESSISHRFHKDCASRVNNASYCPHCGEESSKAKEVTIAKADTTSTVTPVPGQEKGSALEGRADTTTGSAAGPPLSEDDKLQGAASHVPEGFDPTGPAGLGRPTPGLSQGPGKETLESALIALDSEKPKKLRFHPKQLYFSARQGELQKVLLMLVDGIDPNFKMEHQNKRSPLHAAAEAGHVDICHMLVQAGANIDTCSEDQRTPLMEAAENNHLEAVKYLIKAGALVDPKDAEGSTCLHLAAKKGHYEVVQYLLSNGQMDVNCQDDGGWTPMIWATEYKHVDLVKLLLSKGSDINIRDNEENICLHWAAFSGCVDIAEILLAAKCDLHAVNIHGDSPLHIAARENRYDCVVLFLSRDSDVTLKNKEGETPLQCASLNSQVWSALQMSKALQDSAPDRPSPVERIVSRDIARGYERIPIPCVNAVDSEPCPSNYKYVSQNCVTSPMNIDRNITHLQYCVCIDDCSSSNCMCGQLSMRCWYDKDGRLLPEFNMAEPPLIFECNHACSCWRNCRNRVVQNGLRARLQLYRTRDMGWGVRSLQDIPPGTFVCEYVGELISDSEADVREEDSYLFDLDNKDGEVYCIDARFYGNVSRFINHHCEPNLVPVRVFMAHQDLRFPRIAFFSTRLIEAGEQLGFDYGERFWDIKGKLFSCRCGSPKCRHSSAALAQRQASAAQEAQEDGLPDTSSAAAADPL
Description: Selectivity interaction (Methyltransferase screen (radiometric assays, panel of 8 PRMTs, 21 protein lysine methyltransferases, 3 DNA methyltransferases, and one RNA methyltransferase)) EUB0000272b EHMT1.

Assay [6] concerns Serine/threonine-protein kinase B-raf (Homo sapiens), P15056 [V600E]. Put plainly: (§1) Selectivity interaction (KinomeScan (DiscoverX)) EUB0001079a BRAF. The settings on record: at 1 µM.
Serine/threonine-protein kinase B-raf (Homo sapiens), P15056 [V600E], sequence (P15056 whole entry V600E): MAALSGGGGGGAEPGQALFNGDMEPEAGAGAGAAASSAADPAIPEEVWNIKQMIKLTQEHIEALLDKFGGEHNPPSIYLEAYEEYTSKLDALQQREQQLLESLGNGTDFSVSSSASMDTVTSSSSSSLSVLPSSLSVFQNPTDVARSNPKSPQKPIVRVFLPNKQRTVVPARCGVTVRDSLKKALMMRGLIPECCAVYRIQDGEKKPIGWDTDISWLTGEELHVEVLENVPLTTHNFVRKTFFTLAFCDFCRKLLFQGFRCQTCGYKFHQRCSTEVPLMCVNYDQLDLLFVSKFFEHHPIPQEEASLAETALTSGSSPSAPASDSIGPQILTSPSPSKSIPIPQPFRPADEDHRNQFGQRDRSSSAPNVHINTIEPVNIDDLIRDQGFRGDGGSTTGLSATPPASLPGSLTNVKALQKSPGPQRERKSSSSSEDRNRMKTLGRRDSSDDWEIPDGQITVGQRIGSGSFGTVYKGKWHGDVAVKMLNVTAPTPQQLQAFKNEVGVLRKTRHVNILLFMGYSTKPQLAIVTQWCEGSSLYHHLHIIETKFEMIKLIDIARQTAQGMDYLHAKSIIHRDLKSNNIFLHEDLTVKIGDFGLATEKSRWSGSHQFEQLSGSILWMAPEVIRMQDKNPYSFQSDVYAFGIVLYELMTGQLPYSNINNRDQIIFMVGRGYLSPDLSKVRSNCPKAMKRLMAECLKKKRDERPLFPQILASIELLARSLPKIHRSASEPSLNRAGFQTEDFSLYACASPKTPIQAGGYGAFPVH
Assay [7] deals with Serine/threonine-protein kinase B-raf (Homo sapiens) (UniProt P15056). The assay is described as §1. The conditions noted are these: at 1 µM.
Serine/threonine-protein kinase B-raf (Homo sapiens), sequence (P15056 whole entry): as the sequence (P15056 whole entry V600E) above, with E600V counted along it
The target of assay [8] is Sodium-dependent dopamine transporter (Homo sapiens, UniProt Q01959). Put plainly: Selectivity interaction (GPCR panel (PDSP screen)) EUB0001079a SLC6A3. The settings on record: at 10 µM.
Sodium-dependent dopamine transporter, sequence (Q01959 whole entry): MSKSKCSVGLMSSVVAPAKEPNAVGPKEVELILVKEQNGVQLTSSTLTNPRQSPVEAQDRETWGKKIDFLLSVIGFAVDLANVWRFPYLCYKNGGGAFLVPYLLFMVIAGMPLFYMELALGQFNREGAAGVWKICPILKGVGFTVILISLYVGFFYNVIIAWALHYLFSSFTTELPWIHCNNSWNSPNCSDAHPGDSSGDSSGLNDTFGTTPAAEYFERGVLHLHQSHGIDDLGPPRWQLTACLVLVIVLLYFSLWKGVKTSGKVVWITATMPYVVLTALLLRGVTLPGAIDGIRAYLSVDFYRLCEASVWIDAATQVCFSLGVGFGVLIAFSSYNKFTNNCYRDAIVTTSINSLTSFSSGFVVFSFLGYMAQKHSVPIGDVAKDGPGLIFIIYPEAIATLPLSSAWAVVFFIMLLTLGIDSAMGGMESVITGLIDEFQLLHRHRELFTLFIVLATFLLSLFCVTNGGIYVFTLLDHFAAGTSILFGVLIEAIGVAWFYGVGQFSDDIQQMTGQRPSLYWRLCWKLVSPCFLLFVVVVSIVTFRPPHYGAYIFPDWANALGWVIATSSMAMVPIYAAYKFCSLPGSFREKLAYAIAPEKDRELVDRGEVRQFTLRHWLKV
Assay [9] has as its target Serine/threonine-protein kinase WNK1 (Homo sapiens) (UniProt Q9H4A3). Put plainly: Selectivity interaction (KinomeScan (DiscoverX)) EUB0000229b WNK1. The conditions noted are these: at 10 µM.

SMILES strings stand for the structures. Bounds are passed on as bounds.

Tyrosine-protein kinase Fyn (Homo sapiens), sequence (P06241 2-537 limits assumed): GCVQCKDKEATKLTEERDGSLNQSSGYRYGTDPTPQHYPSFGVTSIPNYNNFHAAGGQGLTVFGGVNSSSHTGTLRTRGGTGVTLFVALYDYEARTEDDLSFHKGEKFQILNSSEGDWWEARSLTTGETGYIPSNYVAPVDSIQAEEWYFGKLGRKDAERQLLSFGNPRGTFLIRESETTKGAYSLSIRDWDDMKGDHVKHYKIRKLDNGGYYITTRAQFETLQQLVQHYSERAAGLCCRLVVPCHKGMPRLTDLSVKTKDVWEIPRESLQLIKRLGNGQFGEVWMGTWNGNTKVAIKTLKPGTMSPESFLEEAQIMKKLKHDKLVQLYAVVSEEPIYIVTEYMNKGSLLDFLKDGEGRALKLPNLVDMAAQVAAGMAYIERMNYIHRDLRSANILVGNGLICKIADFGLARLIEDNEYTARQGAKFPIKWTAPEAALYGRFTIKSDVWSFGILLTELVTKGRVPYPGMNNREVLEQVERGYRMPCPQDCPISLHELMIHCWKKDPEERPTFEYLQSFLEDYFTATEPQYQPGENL

In the case of `Cc1cc(F)c(C(=O)Nc2cccc(-c3nncn3C(C)C)n2)cc1-n1cnc(C2CC2)c1`, in assay [1], the % of control is 99%. For the molecule `CC[C@@H]1[C@H](F)C(=O)N[C@@H]1COc1nccc2cc(C(N)=O)c(OC)cc12` [ZIMLOVISERTIB], the results for the % of inhibition in assay [2] and in [3] were 8.9% and 18.4%, respectively. As to `CCC(=O)N1CC[C@H](Nc2ncnc3c2CN(c2cnc(OC)c(C(F)(F)F)c2)CC3)C1` [LENIOLISIB], the IC50 (commonly the concentration needed to halve the response being measured) in [4] is above 10 µM. Consider `Cc1cc(C)cc([C@H]2c3cc(C)ccc3NC(=O)CN2C(=O)c2ccc(Br)s2)c1`, for which the % of activity in [5] (at 1 µM) is 98%; in assay [5] (at 10 µM), 101%. Take `Nc1cnc(N2CCc3cc(S(=O)(=O)Nc4c(F)cc(Cl)cc4F)cc(N4CCCC4=O)c32)nc1` [TP-020n]: the figures for the % of control in assay [6] and in assay [7] were 100% and 98%, respectively. In [8], this molecule yielded a % of inhibition of 20.2%. For the molecule `COc1cc(N(C)c2ccnc3ccc(C(F)(F)F)cc23)cc(OC)c1OC`, in assay [9], the % binding came to 72%.
